Data on 26 compounds can be found in US20250288571A1 (Nested Therapeutics, Inc., priority 2024, published 2025).

Values joined by “and” are separate entries in the source; they are usually repeats but may differ in a detail not shown here. Equal values may be shown once. Read-outs that look alike come from different tables or passages of the source. Bounds are passed on as bounds.

One data set concerns HCT116 cells. Nature of the data set: HCT116 Cell Titer Glow assay (CTG). The conditions noted are these: for viability at 1000 µM: read-out: CTG % cell viability 1000 uM HCT116.20, HCT116 cells, 72 hours, 1000 uM; for viability at 1000 µM / CTG % cell viability 1000 uM HCT116.20: percent cells remaining after treatment; for IC50: read-out: CTG IC50 (nM) Cell Line: HCT116.20. (In general: ATP-based viability assays read luminescence as a measure of living cells.)

The next data set deals with IPC298 cells. Kind of data set: IPC298 Cell Titer Glow assay (CTG). The conditions noted are these: for viability at 100 µM: read-out: CTG % cell viability 100 uM IPC298.2, IPC298 cells, 72 hours, 100 uM; for IC50: read-out: CTG IC50 (nM) Cell Line: IPC298.2.
[1] abbreviates: Homo sapiens, IPC-298, 72 h, percent cells remaining after treatment.

Experimental for IPC298 cells: HCT116 and IPC298 Cell Titer Glow Assay (CTG)
HCT116 cells and IPC298 cells were diluted with culture medium to the desired density 500 cells/well and 40 μL of cell suspension were added into each well of 384-well cell culture plate. […] The plates were covered and stored at room temperature for 30 minutes without shaking and then the plates were transferred into a 37° C. 5% CO2 incubator overnight.
A 10 mM solution in dimethyl sulfoxide (DMSO) was prepared for each test compound. A 3 fold, 10-point dilution was prepared from the stock solution. 40 nl of each solution in 100% DMSO was added to the 384-well plate and diluted to a final 0.1% DMSO final concentration. The plates were then incubated for 72 hours (for both cell lines) at 37° C.
CellTiter-Glo® 2.0 Reagent (Promega, G9242) was removed from the refrigerator and equilibrated at room temperature (23° C.) for 60 minutes. The plates were then removed from the incubator and allowed to equilibrate to room temperature. 30 μL CellTiter-Glo® 2.0 Reagent were added to the assay plates, and spun 1 min/1000 rpm. The plates were allowed to stand for about 20 minutes before being read on Envision using a standard luminescence readout. DMSO was employed as negative control (High control, HC) and 1 uM Staurosporine was employed as positive control (Low control, LC).
The percent (%) inhibition at each concentration of compound was calculated based on the signal in the negative and positive control wells contained within each assay plate.

Regarding `CNS(=O)(=O)Nc1nccc(Cc2cncc(OC3CCC(C)CC3)c2C)c1F` (single isomer, unassigned) [Example 74, 3-fluoro-4-[[4-methyl-5-(4-methylcyclohexoxy)-3-pyridyl]methyl]-N-(methylsulfamoyl)pyridin-2-amine], the viability at 1000 µM with HCT116 cells (Homo sapiens, HCT-116, 72 h) was determined as 92.9%. Also, the IC50 is more than 1000 nM in the data set with HCT116 cells (Homo sapiens, HCT-116, 72 h) and more than 1000 nM in the data set on IPC298 cells (Homo sapiens, IPC-298, 72 h). For the same compound, the viability at 100 µM with IPC298 cells (setting [1]) was found to be 88.6%.

Turning to `CNS(=O)(=O)N1CCc2c(Cc3cncc(Nc4ccc(Cl)cc4F)c3C)ccnc21` [Example 43, 4-({5-[(4-chloro-2-fluorophenyl)amino]-4-methylpyridin-3-yl}methyl)-N-methyl-2H,3H-pyrrolo[2,3-b]pyridine-1-sulfonamide], the IC50 is 10 to 100 nM in the data set on HCT116 cells (Homo sapiens, HCT-116, 72 h) and less than 10 nM in the data set with IPC298 cells (Homo sapiens, IPC-298, 72 h).

Turning to `CNS(=O)(=O)Nc1nccc(Cc2cncc(-c3ccc(Cl)cc3F)c2C)c1F` [Example 44, [(4-{[5-(4-chloro-2-fluorophenyl)-4-methylpyridin-3-yl]methyl}-3-fluoropyridin-2-yl)sulfamoyl](methyl)amine], in the data set with HCT116 cells (Homo sapiens, HCT-116, 72 h), the viability at 1000 µM was determined as 28% and the IC50 is more than 1000 nM. Besides, in the data set with IPC298 cells (Homo sapiens, IPC-298, 72 h), the concentration for half-maximal inhibition (IC50) is 10 to 100 nM.

For `CNS(=O)(=O)Nc1nccc(Cc2cncc(Nc3ccc(Cl)cc3F)c2C)c1OC` [Example 45, 4-[[5-(4-chloro-2-fluoro-anilino)-4-methyl-3-pyridyl]methyl]-3-methoxy-N-(methylsulfamoyl)pyridin-2-amine], in the data set with HCT116 cells (Homo sapiens, HCT-116, 72 h), the IC50 fell in the range of 10 to 100 nM.

As to `CNS(=O)(=O)Nc1ccc(Cc2cncc(Oc3ncc(Cl)cc3F)c2C)cn1` [Example 46, 5-[[5-[(5-chloro-3-fluoro-2-pyridyl)oxy]-4-methyl-3-pyridyl]methyl]-N-(methylsulfamoyl)pyridin-2-amine], the “CTG % cell viability 1000 uM HCT116.20” value with HCT116 cells (HCT116 cells, 72 hours) is 82.81, % and 79.54%. Further, the IC50 was more than 1000 nM with HCT116 cells (Homo sapiens, HCT-116, 72 h) and more than 1000 nM with IPC298 cells (Homo sapiens, IPC-298, 72 h). Further, in the data set on IPC298 cells (IPC298 cells, 72 hours, 1000 uM, percent cells remaining after treatment), the “CTG % cell viability 1000 uM IPC298.2” value was found to be 19.34%.

Consider `CNS(=O)(=O)Nc1nccc(Cc2cncc(Nc3ccc(C4CC4)cc3F)c2C)c1F` [Example 47, 4-[[5-(4-cyclopropyl-2-fluoro-anilino)-4-methyl-3-pyridyl]methyl]-3-fluoro-N-(methylsulfamoyl)pyridin-2-amine], for which the IC50 in the data set on HCT116 cells (Homo sapiens, HCT-116, 72 h) was less than 10 nM; in the data set on IPC298 cells (Homo sapiens, IPC-298, 72 h), less than 10 nM.

For the compound `CNS(=O)(=O)Nc1ccc(Cc2cncc(Oc3ncc(Cl)cc3F)c2C)cn1` [Example 48, 5-[[5-[(5-chloro-3-fluoro-2-pyridyl)oxy]-4-methyl-3-pyridyl]methyl]-N-(methylsulfamoyl)pyridin-2-amine], in the data set on HCT116 cells (HCT116 cells, 72 hours), the “CTG % cell viability 1000 uM HCT116.20” value was 17.49% and the IC50 was more than 1000 nM. The IC50 in the data set with IPC298 cells (IPC298 cells, 72 hours) was more than 1000 nM.

Regarding `CNS(=O)(=O)Nc1nccc(Cc2cncc(Oc3ccc(Cl)cc3F)c2C)c1F` [Example 49, [(4-{[5-(4-chloro-2-fluorophenoxy)-4-methylpyridin-3-yl]methyl}-3-fluoropyridin-2-yl)sulfamoyl](methyl)amine], the IC50 was 10 to 100 nM in the data set on HCT116 cells (Homo sapiens, HCT-116, 72 h) and less than 10 nM in the data set on IPC298 cells (Homo sapiens, IPC-298, 72 h).

As to `CNS(=O)(=O)Nc1nccc(Cc2cncc(Cc3ccc(Cl)cc3F)c2C)c1F` [Example 50, {[4-({5-[(4-chloro-2-fluorophenyl)methyl]-4-methylpyridin-3-yl}methyl)-3-fluoropyridin-2-yl]sulfamoyl}(methyl)amine], the IC50 was in the range of 500 to 1000 nM in the data set on HCT116 cells (Homo sapiens, HCT-116, 72 h) and 10 to 100 nM in the data set on IPC298 cells (Homo sapiens, IPC-298, 72 h).

In the case of `CNS(=O)(=O)Nc1nccc(Cc2cncc(Oc3ccc(C(F)(F)F)cc3F)c2C)c1F` [Example 51, 3-fluoro-4-[[5-[2-fluoro-4-(trifluoromethyl)phenoxy]-4-methyl-3-pyridyl]methyl]-N-(methylsulfamoyl)pyridin-2-amine], in the data set with HCT116 cells (Homo sapiens, HCT-116, 72 h), the IC50 was in the range of 100 to 500 nM.

For the compound `CNS(=O)(=O)Nc1nccc(Cc2cnnc(Nc3ccc(Cl)cc3F)c2C)c1F` [Example 52, N-(4-chloro-2-fluoro-phenyl)-5-[[3-fluoro-2-(methylsulfamoylamino)-4-pyridyl]methyl]-4-methyl-pyridazin-3-amine], the IC50 in the data set with HCT116 cells (Homo sapiens, HCT-116, 72 h) is 100 to 500 nM; with IPC298 cells (Homo sapiens, IPC-298, 72 h), less than 10 nM.

In the case of `CNS(=O)(=O)Nc1nccc(Cc2cncc(Nc3ccc(Cl)cc3F)c2C)n1` [Example 53, 4-[[5-(4-chloro-2-fluoro-anilino)-4-methyl-3-pyridyl]methyl]-N-(methylsulfamoyl)pyrimidin-2-amine], the IC50 with HCT116 cells (Homo sapiens, HCT-116, 72 h) was in the range of 10 to 100 nM.

As to `CNS(=O)(=O)Nc1nccc(Cc2cncc(Oc3cccc(Cl)c3F)c2)c1F` [Example 54, 4-[[5-(3-chloro-2-fluoro-phenoxy)-3-pyridyl]methyl]-3-fluoro-N-(methylsulfamoyl)pyridin-2-amine], the viability at 1000 µM was found to be 81.2% in the data set with HCT116 cells (Homo sapiens, HCT-116, 72 h) and 70.1% in the data set on IPC298 cells (Homo sapiens, IPC-298, 72 h, read-out: CTG % cell viability 1000 uM IPC298.2, IPC298 cells, 72 hours, 1000 uM, percent cells remaining after treatment). For the same compound, the IC50 in the data set on HCT116 cells (Homo sapiens, HCT-116, 72 h) was more than 1000 nM; with IPC298 cells (Homo sapiens, IPC-298, 72 h) it was more than 1000 nM.

For `CNS(=O)(=O)Nc1nccc(Cc2cncc(Nc3ncccn3)c2C)c1F` [Example 55, N-[5-[[3-fluoro-2-(methylsulfamoylamino)-4-pyridyl]methyl]-4-methyl-3-pyridyl]pyrimidin-2-amine], in the data set on HCT116 cells (Homo sapiens, HCT-116, 72 h), the viability at 1000 µM is 80.9% and the IC50 is more than 1000 nM.

As to `CNS(=O)(=O)Nc1nccc(Cc2cncc(-c3cc(Cl)ccc3F)c2C)c1F` [Example 56, [(4-{[5-(5-chloro-2-fluorophenyl)-4-methylpyridin-3-yl]methyl}-3-fluoropyridin-2-yl)sulfamoyl](methyl)amine], the IC50 is 100 to 500 nM with HCT116 cells (Homo sapiens, HCT-116, 72 h) and less than 10 nM in the data set with IPC298 cells (Homo sapiens, IPC-298, 72 h).

In the case of `CNS(=O)(=O)Nc1nccc(Cc2cncc(-c3cccc(Cl)c3F)c2C)c1F` [Example 57, [(4-{[5-(3-chloro-2-fluorophenyl)-4-methylpyridin-3-yl]methyl}-3-fluoropyridin-2-yl)sulfamoyl](methyl)amine], the “CTG % cell viability 1000 uM HCT116.20” value in the data set with HCT116 cells (HCT116 cells, 72 hours) is 45.51%. Also, in the data set on HCT116 cells (Homo sapiens, HCT-116, 72 h), the viability at 1000 µM is 56.8% and the IC50 was more than 1000 nM. Besides, the IC50 in the data set on IPC298 cells (Homo sapiens, IPC-298, 72 h) fell in the range of 10 to 100 nM.

For the compound `CNS(=O)(=O)Nc1nccc(Cc2cncc(Nc3ccc(C(C)C)cc3F)c2C)c1F` [Example 58, 3-fluoro-4-[[5-(2-fluoro-4-isopropyl-anilino)-4-methyl-3-pyridyl]methyl]-N-(methylsulfamoyl)pyridin-2-amine], the IC50 is less than 10 nM in the data set with HCT116 cells (Homo sapiens, HCT-116, 72 h) and less than 10 nM with IPC298 cells (Homo sapiens, IPC-298, 72 h).

On to `CNS(=O)(=O)Nc1nccc(Cc2cncc(-n3ccc4cc(Cl)ccc43)c2)c1F` [Example 59, [(4-{[5-(5-chloroindol-1-yl)pyridin-3-yl]methyl}-3-fluoropyridin-2-yl)sulfamoyl](methyl)amine], for which the concentration for half-maximal inhibition (IC50) lay in the range of 100 to 500 nM with HCT116 cells (Homo sapiens, HCT-116, 72 h) and 10 to 100 nM in the data set with IPC298 cells (Homo sapiens, IPC-298, 72 h).

As to `C#Cc1cnc(Nc2cncc(Cc3ccnc(NS(=O)(=O)NC)c3F)c2C)c(F)c1` [Example 60, 4-[[5-[(5-ethynyl-3-fluoro-2-pyridyl)amino]-4-methyl-3-pyridyl]methyl]-3-fluoro-N-(methylsulfamoyl)pyridin-2-amine], the IC50 with HCT116 cells (Homo sapiens, HCT-116, 72 h) was 100 to 500 nM; in the data set on IPC298 cells (Homo sapiens, IPC-298, 72 h), less than 10 nM.

As to `CNS(=O)(=O)Nc1nccc(Cc2cncc(Nc3ncc(Cl)cc3F)c2C)c1F` [Example 62, 4-[[5-[(5-chloro-3-fluoro-2-pyridyl)amino]-4-methyl-3-pyridyl]methyl]-3-fluoro-N-(methylsulfamoyl)pyridin-2-amine], the viability at 1000 µM in the data set with HCT116 cells (Homo sapiens, HCT-116, 72 h) was 46.4%. For the same compound, the IC50 with HCT116 cells (Homo sapiens, HCT-116, 72 h) is more than 1000 nM; in the data set on IPC298 cells (Homo sapiens, IPC-298, 72 h), 10 to 100 nM.

As for `CNS(=O)(=O)Nc1nccc(Cc2cncc(O[C@H]3CC[C@H](C)CC3)c2C)c1F` [Example 63, 3-fluoro-4-[[4-methyl-5-(4-methylcyclohexoxy)-3-pyridyl]methyl]-N-(methylsulfamoyl)pyridin-2-amine], in the data set on HCT116 cells (Homo sapiens, HCT-116, 72 h), the viability at 1000 µM came to 71.5% and the IC50 was more than 1000 nM. In the data set with IPC298 cells (setting [1]), the viability at 100 µM amounted to 62.4%. Besides, in the data set on IPC298 cells (Homo sapiens, IPC-298, 72 h), the half-maximal inhibitory concentration (IC50) is more than 1000 nM.

Take `CNS(=O)(=O)Nc1nccc(Cc2cncc(Oc3ccc(C(F)F)cc3F)c2C)c1F` [Example 65, 4-[[5-[4-(difluoromethyl)-2-fluoro-phenoxy]-4-methyl-3-pyridyl]methyl]-3-fluoro-N-(methylsulfamoyl)pyridin-2-amine]: the IC50 in the data set with HCT116 cells (Homo sapiens, HCT-116, 72 h) was 10 to 100 nM; in the data set on IPC298 cells (Homo sapiens, IPC-298, 72 h), less than 10 nM.

For the compound `CNS(=O)(=O)Nc1nccc(Cc2cncc(Nc3ccc(OC(F)F)cn3)c2C)c1F` [Example 66, 4-[[5-[[5-(difluoromethoxy)-2-pyridyl]amino]-4-methyl-3-pyridyl]methyl]-3-fluoro-N-(methylsulfamoyl)pyridin-2-amine], the concentration for half-maximal inhibition (IC50) with HCT116 cells (Homo sapiens, HCT-116, 72 h) was 10 to 100 nM; in the data set with IPC298 cells (Homo sapiens, IPC-298, 72 h), less than 10 nM.

Regarding `CNS(=O)(=O)Nc1nccc(Cc2cncc(Nc3ccc(Cl)cc3F)c2Cl)c1F` [Example 67, 4-chloro-N-(4-chloro-2-fluorophenyl)-5-({3-fluoro-2-[(methylsulfamoyl)amino]pyridin-4-yl}methyl)pyridin-3-amine], the IC50 with HCT116 cells (Homo sapiens, HCT-116, 72 h) is 10 to 100 nM; in the data set with IPC298 cells (Homo sapiens, IPC-298, 72 h), less than 10 nM.

Regarding `C=CCNc1cncc(Cc2ccnc(NS(=O)(=O)NC)c2F)c1C` [Example 68, 4-[[5-(allylamino)-4-methyl-3-pyridyl]methyl]-3-fluoro-N-(methylsulfamoyl)pyridin-2-amine], the IC50 in the data set with HCT116 cells (Homo sapiens, HCT-116, 72 h) was 500 to 1000 nM; in the data set on IPC298 cells (Homo sapiens, IPC-298, 72 h), more than 1000 nM.

For the compound `CNS(=O)(=O)Nc1nccc(Cc2cncc(Nc3ccc(OC(F)(F)F)cn3)c2C)c1F` [Example 69, 3-fluoro-N-(methylsulfamoyl)-4-[[4-methyl-5-[[5-(trifluoromethoxy)-2-pyridyl]amino]-3-pyridyl]methyl]pyridin-2-amine], in the data set on HCT116 cells (Homo sapiens, HCT-116, 72 h), the viability at 1000 µM turned out to be 60.4% and the IC50 is more than 1000 nM. Moreover, the IC50 with IPC298 cells (Homo sapiens, IPC-298, 72 h) was in the range of 10 to 100 nM.

One may read the viability as a per cent measure of how many cells are alive, often set against a control. Broadly, the IC50 is the concentration that inhibits the measured activity by half.
